Key:
Assay in all cases: relative viability (nuclei count vs DMSO), 5 days (fraction); higher = more cells survive
[1] = test system: NCI-H1650
Method in brief: (§1)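 For relative viability, nuclei counts in treated wells were divided by those in vehicle wells. Lung cancer cell lines had been pin-tool dosed in 1536-well plates the day after seeding and cultured for 5 days, then fixed and stained in one step (final 0.05% Triton X-100, 1% formaldehyde, 1 ug/ml Hoechst) and imaged at 4×. Doses were one drug alone or a fixed anchor-drug dose plus five library-drug doses (not always all listed) in √10 steps, and values are duplicate-plate medians.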

[2] = test system: NCI-H1666
Method in brief: as §1

[3] = test system: NCI-H2009
Method in brief: as §1

[4] = test system: NCI-H2023
Method in brief: as §1

[5] = test system: NCI-H2170
Method in brief: as §1

[6] = test system: NCI-H3122
Method in brief: as §1

[7] = test system: NCI-H441
Method in brief: as §1

[8] = test system: NCI-H661
Method in brief: as §1

[9] = test system: NCI-H727
Method in brief: as §1

[10] = test system: NCI-H838
Method in brief: as §1

[11] = test system: PC-14
Method in brief: as §1

[12] = test system: SW 900
Method in brief: as §1

## Clc1ccc(Nc2nnc(Cc3ccncc3)c3ccccc23)cc1 [Vatalanib] + CC(=O)c1c(C)c2cnc(Nc3ccc(N4CCNCC4)cn3)nc2n(C2CCCC2)c1=O [Palbociclib] (partner 0.5 µM)
[1]; first compound 0.04 µM
  relative viability: 0.364
[1]; first compound 0.1265 µM
  relative viability: 0.384
[1]; first compound 0.4 µM
  relative viability: 0.299
[1]; first compound 1.265 µM
  relative viability: 0.33
[1]; first compound 4 µM
  relative viability: 0.312
[2]; first compound 0.04 µM
  relative viability: 0.646
[2]; first compound 0.1265 µM
  relative viability: 0.624
[2]; first compound 0.4 µM
  relative viability: 0.643
[2]; first compound 1.265 µM
  relative viability: 0.616
[2]; first compound 4 µM
  relative viability: 0.667
[3]; first compound 0.04 µM
  relative viability: 0.245
[3]; first compound 0.1265 µM
  relative viability: 0.203
[3]; first compound 0.4 µM
  relative viability: 0.249
[3]; first compound 1.265 µM
  relative viability: 0.24
[3]; first compound 4 µM
  relative viability: 0.213
[4]; first compound 0.04 µM
  relative viability: 0.375
[4]; first compound 0.1265 µM
  relative viability: 0.344
[4]; first compound 0.4 µM
  relative viability: 0.439
[4]; first compound 1.265 µM
  relative viability: 0.393
[4]; first compound 4 µM
  relative viability: 0.366
[5]; first compound 0.04 µM
  relative viability: 0.415
[5]; first compound 0.1265 µM
  relative viability: 0.443
[5]; first compound 0.4 µM
  relative viability: 0.35
[5]; first compound 1.265 µM
  relative viability: 0.376
[5]; first compound 4 µM
  relative viability: 0.384
[6]; first compound 0.04 µM
  relative viability: 0.163
[6]; first compound 0.1265 µM
  relative viability: 0.213
[6]; first compound 0.4 µM
  relative viability: 0.195
[6]; first compound 1.265 µM
  relative viability: 0.237
[6]; first compound 4 µM
  relative viability: 0.182
[7]; first compound 0.04 µM
  relative viability: 0.223
[7]; first compound 0.1265 µM
  relative viability: 0.194
[7]; first compound 0.4 µM
  relative viability: 0.253
[7]; first compound 1.265 µM
  relative viability: 0.194
[7]; first compound 4 µM
  relative viability: 0.223
[8]; first compound 0.04 µM
  relative viability: 0.411
[8]; first compound 0.1265 µM
  relative viability: 0.387
[8]; first compound 0.4 µM
  relative viability: 0.441
[8]; first compound 1.265 µM
  relative viability: 0.397
[8]; first compound 4 µM
  relative viability: 0.401
[9]; first compound 0.1265 µM
  relative viability: 0.611
[9]; first compound 0.4 µM
  relative viability: 0.683
[9]; first compound 1.265 µM
  relative viability: 0.66
[9]; first compound 4 µM
  relative viability: 0.638
[10]; first compound 0.04 µM
  relative viability: 0.227
[10]; first compound 0.1265 µM
  relative viability: 0.235
[10]; first compound 0.4 µM
  relative viability: 0.218
[10]; first compound 1.265 µM
  relative viability: 0.203
[10]; first compound 4 µM
  relative viability: 0.215
[11]; first compound 0.04 µM
  relative viability: 0.523
[11]; first compound 0.1265 µM
  relative viability: 0.492
[11]; first compound 0.4 µM
  relative viability: 0.581
[11]; first compound 1.265 µM
  relative viability: 0.473
[11]; first compound 4 µM
  relative viability: 0.532
[12]; first compound 0.04 µM
  relative viability: 0.504
[12]; first compound 0.1265 µM
  relative viability: 0.523
[12]; first compound 0.4 µM
  relative viability: 0.534
[12]; first compound 1.265 µM
  relative viability: 0.614
[12]; first compound 4 µM
  relative viability: 0.547
